Measurements reported in PubChem BioAssay AID1259411 (Chemical Carcinogenesis Research Information System (CCRIS), 2018).
Activity calls are given as the source filed them. How the calls were made is not given here.

Test system: rodent carcinogenicity bioassays, tumor incidence
Test: CCRIS carcinogenicity studies
Outline: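 Archive of carcinogenicity, mutagenicity, tumor promotion and tumor inhibition results drawn from journals, NCI reports and other sources, expert-reviewed; covers 1985-2011 and is no longer updated.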

With `O=P(O)(O)CCCl` the carcinogen call (Species: Mouse, Strain/Sex: CD-1 albino/Female (20 or 50/Group), Route: Oral, Dose: 0, 100, 1000, 10,000 ppm of 70.6-72.1% ethephon for 52 (20/Group) wks and 78 (50/Group) wks, Dose: 0, 100, 1000, 10,000 ppm of 70.6-72.1% ethephon for 52 (20/Group) wks and 78 (50/Group) wks) was “inactive; negative”, the carcinogen call (Species: Mouse, Strain/Sex: CD-1 albino/Male (20 or 50/Group), Route: Oral, Dose: 0, 100, 1000, 10,000 ppm of 70.6-72.1% ethephon for 52 (20/Group) wks and 78 (50/Group) wks, Dose: 0, 100, 1000, 10,000 ppm of 70.6-72.1% ethephon for 52 (20/Group) wks and 78 (50/Group) wks) was “inactive; negative” and the carcinogen call (Species: Rat, Strain/Sex: Sprague-Dawley CD/Female (30 or 50/Group), Route: Oral, Dose: 0, 300, 3000, 10,000, 30,000 ppm of 70.6-72.1% ethephon for 104 wks, study duration 104 wks, Dose: 0, 300, 3000, 10,000, 30,000 ppm of 70.6-72.1% ethephon for 104 wks, study duration 104 wks) was “inactive; negative”. For the same molecule, the carcinogen call (Species: Rat, Strain/Sex: Sprague-Dawley CD/Male (30 or 50/Group), Route: Oral, Dose: 0, 300, 3000, 10,000, 30,000 ppm of 70.6-72.1% ethephon for 97 wks, study duration 97 wks, Dose: 0, 300, 3000, 10,000, 30,000 ppm of 70.6-72.1% ethephon for 97 wks, study duration 97 wks) was “inactive; negative”.
`Nc1nc2ncc(CNc3ccc(C(=O)N(N=O)[C@@H](CCC(=O)O)C(=O)O)cc3)nc2c(=O)[nH]1` was tested, and the carcinogen call (Species: RAT, Route: ORAL, Tumor Site: Type of Lesion: LIVER) was “active; positive”.
